# Measurements as given in patent US10376553B2, “Pharmaceutical composition for preventing and treating chronic obstructive lung disease containing, as active ingredient, Magnoliae flos extract, fraction, or active fraction thereof” (KOREA RESEARCH INSTITUTE OF BIOSCIENCE AND BIOTECHNOLOGY, priority 2015, dated 2019).
# Values joined by “and” are separate entries in the source; they are usually repeats but may differ in a detail not shown here. Equal values may be shown once.
# Columns and labels:
# Format in all cases: in vivo, C57BL/6N mice
# IL-6 = IL-6 level in BALF of the COPD model (ELISA); settings: vs COPD-induced group
# Protocol: (§1) Cytokines were measured in the cell supernatant obtained in <Test Example 6-3> above by the following method. Specifically, the levels of IL-6 (R & D System, USA) and TNF-α (BD Bioscience, USA) in the separated BALF were measured by enzyme-linked immuno-sorbent assay (ELISA). Each cytokine analysis was carried out according to the manufacturer's test method.
# TNF-α = TNF-α level in BALF of the COPD model (ELISA); settings: 10 mg/kg p.o., BALF, vs COPD-induced group
# Protocol: as §1
# [1] = system: inflammatory cells in the bronchoalveolar lavage fluid; assay: Inflammatory cells in bronchoalveolar lavage fluid of the COPD mouse model (cigarette smoke + LPS); settings: 10 mg/kg p.o., BALF, vs COPD-induced group
# Protocol: Six-week-old male SPF (specific pathogen-free) C57BL/6N mice (22 to 24 g) were supplied by Koatech (Korea). These animals were fed with a sufficient amount of solid feed (no antibiotics, Samyang Feed Co.) and water until the day of the experiment. They were allowed to adapt for 1 week in a light-dark cycle environment at a temperature of 22±2° C. and a humidity of 55±15%, and then subjected to the experiment.
# The animal model was exposed to cigarette smoke to induce chronic obstructive pulmonary disease. 3R4F Kentuchy Reference Cigarettes as standard cigarettes for use to generate cigarette smoke were supplied by University of California (USA). The standard cigarettes contain 9.4 mg of tar, 11 mg of total particle matter (TPM), and 12 mg of carbon monoxide per 1 cigarette. The standard cigarettes were used after harmonization for 48 hours to 72 hours at a temperature of 22±1° C. and a humidity of 60±2%. Further, Cigarette Smoke Generator manufactured by Korea BioLink (Korea) was used for exposure to cigarette smoke. Cigarette smoke was inhaled for 1 hour (8 pcs/hour) for 7 days from 1 hour after oral administration of a sample. 10 μg of LPS (lipopolysaccharide) in PBS 50 μL was injected intranasally to each mouse on the 4th day of the experiment after the mouse was anesthetized with zoletyl 1 hour before the exposure to cigarette smoke. The smoking condition was 8 puffs per 1 standard cigarette (volume: 45 mL, duration: 2 seconds, and interval: 1 time/min).
# The active fraction of Magnoliae flos (15, 30 mg/kg) and roflumilast (10 mg/kg) as therapeutic substances were dissolved in 0.5% sodium carboxymethyl cellulose and were orally administered 1 hour before the exposure to cigarette smoke.
# The experimental groups were divided into (i) normal control (NC) group; (ii) cigarette smoke+LPS exposure group (COPD); (iii) experimental group administered with roflumilast (ROF) (10 mg/kg, p.o) 1 hour before the exposure to cigarette smoke+LPS; and (iv) experimental group administered with the active fraction of Magnoliae flos (15, 30 mg/kg, p.o; Magnoliae flos 15 and Magnoliae flos 30) 1 hour before the exposure to cigarette smoke+LPS. […] Then, they were administered in the same manner as above.
# The bronchial alveolar lavage fluid was separated from the animal model treated with the active fraction and the compounds of Magnoliae flos in <Test Example 6-2> above in the following manner, and the number of inflammatory cells was measured.
# Specifically, a mouse sonde was inserted into the bronchial tube, a 1 mL syringe containing 0.7 mL of DPBS (Dulbecco's Phosphate-Buffered Saline) was connected thereto, and DPBS was injected into the lung. The injected DPBS was recovered, and this procedure was repeated twice. The bronchoalveolar lavage fluid separated by DPBS was centrifuged at 1,500 rpm for 15 minutes to make a cell pellet. The supernatant was stored frozen at −70° C. for cytokine analysis. Each cell obtained was suspended in DPBS, attached to a slide glass using a cytospin centrifuge, and Diff-Quik stained. The number of inflammatory cells in each sample was counted through microscopic examination, and the inhibition rate was calculated according to the following Equation 3.
# Inhibition rate=(Value of COPD-induced group−value of target substance administered group)×100/(Value of COPD-induced group) [Equation 3]
# [2] = system: infiltration of inflammatory cells in the lung tissue; assay: Lung tissue histopathology (H&E) in the COPD model; settings: vs COPD-induced group
# Protocol: Specifically, the lung was taken out and immediately fixed in a 10% formaldehyde solution, which was then sliced and washed with running water for 8 hours. It was then embedded in […] and Hematoxylin & Eosin stained, and the pathological changes in the lung tissue were examined using an optical microscope.
# reactive oxygen species = assay: Production of active oxygen species in BALF of the COPD model (DCF-DA); settings: 10 mg/kg p.o., vs COPD-induced group
# Protocol: Production of active oxygen species in the bronchoalveolar lavage fluid obtained in <Test Example 6-3> above was confirmed by the following method.
# Specifically, the separated BALF (200 μL) was treated to the final concentration of 20 μM of DCF-DA (dihydrodichlorofluorescein diacetate, Sigma-Aldrich, USA), followed by culturing for 30 minutes and measurement using Fluorescence (Molecular Device, USA). The inhibition rate was calculated by Equation 3 above.
compound,measurement,setting,value
"O=C(Nc1c(Cl)cncc1Cl)c1ccc(OC(F)F)c(OCC2CC2)c1 [ROF, roflumilast, reference compound]",IL-6 in the bronchoalveolar lavage fluid (in words),IL-6,decreased
same,TNF-α inhibition rate (%),TNF-α,44.8 ± 3.8% and 30.8 ± 5.9%
same,Inhibition rate of inflammatory cell infiltration (%) Macrophage,[1],36.9 ± 15.0% and 30.6 ± 9.9%
same,Inhibition rate of inflammatory cell infiltration (%) Neutrophil,[1],31.9 ± 7.6% and 37.4 ± 8.3%
same,Inhibition rate of inflammatory cell infiltration (%) Total inflammatory cells,[1],34.9 ± 4.6% and 39.4 ± 7.2%
same,infiltration of inflammatory cells around the alveoli and bronchi (in words),[2],reduced
same,Active oxygen inhibition rate (%),reactive oxygen species,25.9 ± 4.3%
